Data from publication PMC3537892 (Clinical cancer research : an official journal of the …, 2012).

System: RENCA renal cancer cells grafted in the renal capsule
Assay: Orthotopic RENCA renal cancer allograft
Format: in vivo, BALB/c mice
Settings: three i.v. injections in fourth week after grafting; p < 0.003

For `CC(=O)O[C@H]1C(=O)[C@@]2(C)[C@H]([C@H](OC(=O)c3ccccc3)[C@]3(O)C[C@H](OC(=O)[C@H](O)[C@@H](NC(=O)c4ccccc4)c4ccccc4)C(C)=C1C3(C)C)[C@]1(OC(C)=O)CO[C@@H]1C[C@@H]2O` [PTX, paclitaxel], the “tumor volume compared to vehicle control” value was “significantly decreased tumor volume”.
